Test results reported in paper PMC6691761, “Potential multifunctional agents with anti-hepatoma and anti-inflammation properties by inhibiting NF-кB activation” (Journal of Enzyme Inhibition and Medicinal Chemistry, 2019).

How the values were obtained:
[1] = tested on: HepG2 cells; experiment: Apoptosis assay, annexin V staining, flow cytometry; format: cell-based, human; conditions: 2.0 μM, 24 h
Protocol: After treated with BAP 96 (1.0, 2.0, and 4.0 μM) and DMSO for 24 h. HepG2 cells were washed and added with 500 μL of Binding Buffer, 5 μL of Annexin V-EGFP and 5 μL of Propidiumlodide and mix (BD Biosciences, San Jose, CA) according to the manufacturer’s instruction. The mixed solution was gently vortexed and incubated in the dark at RT for 15 min. The results were detected by flow cytometry (BD FACS Calibur, San Jose, CA) within 1 h.

[2] = Body weight of xenograft mice; format: in vivo; conditions: 0.2, 1.0, 5.0 mg/kg i.p. every 2 d for 20 days
Protocol: (§1) The HepG2 cells xenografts were established using the Balb/c nude mice (female, 7-week-old, 17–19 g, n = 30) (Shanghai Laboratory Animal Center, Shanghai Shi, China) were used to investigate the anti-hepatoma effect of 96. Animal experiments were reviewed and approved by the Binzhou Medical University Experimental Animal Committee. Briefly, HepG2 cells (1 × 10^7/0.2 ml PBS/mouse) were inoculated subcutaneously. Three days after the inoculation, the mice were randomly divided into five groups: the saline treated group (Control), 96 (0.2 mg/kg) group, 96 (1.0 mg/kg) treated group, 96 (5.0 mg/kg) treated group, and DOX (1.0 mg/kg) treated group. 96 were dissolved in saline containing 1% of DMSO and administered intraperitoneally every 2 d for 20 days. DOX was also administered intraperitoneally every 2 d for 20 d. The body weight and HepG2 xenografts volumes were recorded from the day of treatment, and xenografts volumes were calculated using the equation: tumour volume = length×(width)[2]×π/6. At the end of the experiment, mice were sacrificed and the xenografts were obtained for western blotting, HE staining and immunohistochemistry staining.

[3] = tested on: human gastric adenocarcinoma cells (SGC7901); experiment: Cytotoxicity, MTT assay, SGC7901; format: cell-based
Excerpt: (§2) Compounds 83–102 were screened against human neoplastic cell lines, such as human breast cancer cells (MCF-7), human colon cancer cells (HCT116), human lung carcinoma cells (A549), human gastric adenocarcinoma cells (SGC7901), human liver hepatocellular carcinoma cell line (HepG2), human cervical carcinoma cells (HeLa), human acute mononuclear granulocyte leukaemia (THP-1), and human normal hepatic cell line (LO2) using modified MTT assay. All the cells were obtained from the American Type Culture Collection (ATCC, Manassas, VA). The cells were cultured in DMEM or 1640. Positive controls (Doxorubicin (DOX) and Curcumin) and BAPs were initially dissolved in dimethyl sulphoxide (DMSO). Experimental concentration of DMSO was always 0.1% (v/v). The concentrations of BAPs and positive controls were 50, 20, 10, 5, 2.5, 1, 0.5, 0.1, 0.05, and 0.01 μg/mL.
(§3) The cells (1 × 10^4 cells/well) were seeded in a 96-well plate and incubated for 24 h. Cells treated with serial concentrations of drugs were incubated for another 24 h. After the media removed, 20 μL of MTT (5 mg/mL) solution was added and incubated for 4 h at 37 °C. The MTT solution was removed and then 150 μL of DMSO was added. The optical density was measured with a multi-well plate reader (TECAN, Mӓnnedorf, Switzerland) at 570 nm. The results are expressed as a decrease in the cell viability (%) in comparison to untreated controls. The concentration of each compound was examined in triplicate, and the IC50 values are expressed in Table 1.

[4] = tested on: Bcl-2 expression in HepG2 xenografts; experiment: Immunohistochemistry staining of Bcl-2 in HepG2 xenografts; format: in vivo, Balb/c nude mice; conditions: 96 5.0 mg/kg, DOX 1.0 mg/kg, versus model group
Protocol: as §1
The HepG2 xenografts tissues were embedded using the paraffin, and sectioned for HE staining and immunohistochemistry staining. HE staining was performed routinely. The immunohistochemistry staining carried out as following. […]

[5] = tested on: human liver hepatocellular carcinoma cell line (HepG2); experiment: Cytotoxicity, MTT assay, HepG2; format: cell-based; conditions: for IC50: MTT, 24 h
Excerpt: as §2, §3

[6] = tested on: p-IκBα in TNF-α-stimulated HepG2 cells; experiment: TNF-α-stimulated phosphorylation of IκBα in HepG2 cells; format: cell-based, human; conditions: HepG2, 1.0, 2.0, and 4.0 μM
Protocol: (§4) The HepG2 cells were treated with BAP 96 at different concentrations (1.0, 2.0, and 4.0 µM) for 3 h, and washed twice by PBS. The cells were lysed and the extracted proteins of cell lysates were separated by 10% SDS-PAGE gel electrophoresis, then transferred onto polyvinylidene fluorides membranes. The membranes were probed with antibodies and visualized using an enhanced chemiluminescence (ECL) detection kit.
(§5) It is known that NF-κB has been implicated in the crossroad of inflammation and cancer[25]^,[26]. In our previous study, some BAPs (such as 23 and 67) could inhibit NF-κB activation by inhibiting the phosphorylation of NF-κB (P65) and IκB[13]^,[14]. Herein, it is an urgent to resolve whether 96 has the same mechanism of action as 23 and 67. Therefore, the RAW264.7 cells were pretreated with LPS, and then treated with different concentrations (1.0, 2.0, 4.0 μM) of 96. […] Similarly, the HepG2 cells were pretreated with TNF-α, then treated with different concentrations (1.0, 2.0, and 4.0 μM) of 96.

[7] = tested on: BAX expression in HepG2 xenografts; experiment: Western blot, BAX in HepG2 xenografts; format: in vivo, Balb/c nude mice; conditions: 0.2, 1.0 and 5.0 mg/kg
Protocol: as §1
Western blotting was performed to detect the expression of Bcl-2, Bax and C-caspase-3 in HepG2 xenografts. Fresh HepG2 xenografts tissues were lysed and the obtained proteins were processed as the protein obtained from the HepG2 cells.

[8] = tested on: human cervical carcinoma cells (HeLa); experiment: Cytotoxicity, MTT assay, HeLa; format: cell-based
Excerpt: as §2, §3

[9] = tested on: p-p65 in TNF-α-stimulated HepG2 cells; experiment: TNF-α-stimulated phosphorylation of p65 in HepG2 cells; format: cell-based, human; conditions: HepG2, 1.0, 2.0, and 4.0 μM
Protocol: as §4, §5

[10] = quotient of IC50 towards LO2 cells

CN1CC(=Cc2cccc(N=Cc3cc(Br)ccc3O)c2)C(=O)C(=Cc2ccccc2F)C1 [Compound 96]
Apoptosis rate of HepG2 cells [1]: 24.4%
Toxicity judged by mice body weight [2]: correspondingly nontoxic at the experimental doses
IC50 ([3]; Homo sapiens, SGC-7901, MTT, 24 h): 2400 ± 800 nM
SGC7901 SI (selectivity index) [3, 10]: 8.3
Bcl-2 expression, immunohistochemistry [4]: significantly reduced
IC50 ([5]; Homo sapiens, HepG2, 24 h): < 2000 nM
IC50 [5]: 1000 ± 400 nM
HepG2 SI (selectivity index) [5, 10]: 19.9
Phosphorylation of IκBα induced by TNF-α [6]: dose-dependent downward trend
Expression of BAX in HepG2 xenografts [7]: significantly increased in a dose-dependent manner
IC50 ([8]; Homo sapiens, HeLa, MTT, 24 h): 2100 ± 800 nM
HeLa SI (selectivity index) [8, 10]: 9.5
Phosphorylation of p65 induced by TNF-α [9]: dose-dependent downward trend
